Experiments:
[1] = test system: retinal disorders due to transient retinal ischemia; assay: rat model with retinal disorders due to transient retinal ischemia; assay type: in vivo; conditions: SD male rats
Method: Effects of the compound represented by the formula (I) (which will hereinafter be called “compound of the present invention”) on a rat model with retinal disorders due to transient retinal ischemia;
The model with retinal disorders due to transient retinal ischemia was prepared in accordance with the method described in Eur. J. Pharmaco., 350, 53-57 (1998).
After rats (SD male rats, 9-week-old (purchased from Charles River Japan, Inc.)) were weighed, pentobarbital sodium (Pentbarbital Na) (50-75 mg/kg) was intraperitoneally administered to anesthetize them. They were fixed to a platform, and kept warm at around 37° C. A perfusate for ophthalmic surgery (“BSS PLUS”; product of Santen Pharmaceutical) was hung so that the height from the position of the eyes of the rats would be 170 cm±5 cm. This height permitted application of pressure of about 130 mmHg. To the perfusate bottle was connected an extension tube and an injection needle (27 gauge×¾ inch) was attached to another end of the tube. […]
After the eyeballs were immobilized in a Davidson's fixative and a paraffin section was prepared at the cross-section passing through the optic papilla, it was dyed with hematoxylin and eosin (H.E.). […] The number of granule cells (GCL (ganglion cell layer), cell/mm) per 1 mm width of the optic papilla was counted by optical microscopic examination. […]

rats = assay: single-dose oral toxicity in rats; assay type: in vivo, rat; conditions: single-dose oral administration to rats
Method: The compound represented by the formula (I) or a non-toxic salt thereof has markedly low toxicity so that use of it as a pharmaceutical can be considered as safe enough. For example, the minimum lethal dose of the compound represented by the formula (I) by single-dose oral administration to rats was 2000 mg/kg or more.

Q: Which results are given for `CC(C)(C)OC(=O)N1CSC[C@H]1C(=O)N[C@@H](CSCC1CCCCC1)C(=O)NC1CCN(Cc2ccccc2)CC1` [Compound of the present invention, (2R)-N-(1-Benzylpiperidin-4-yl)-3-cyclohexylmethylthio-2-((4R)-3-t-butoxycarbonylthiazolidin-4-ylcarbonylamino)propanamide]?
A: The number of granule cells (GCL) ([1]; 100 mg/5 mL/kg oral one hour before 45 min ischemia, counted one week after ischemia, per 1 mm width of the optic papilla): 49.2 cell/mm; inhibiting activity to the model of retinal disorders due to transient retinal ischemia ([1]; 100 mg/kg oral one hour before ischemia, from granule cell counts of Table 1): 34%; minimum lethal dose (rats): ≥ 2000 mg/kg

— US20040067891A1, “Therapeutic and/or preventive agents for diseases due to retinal ischemia” (priority 2000, published 2004)
